Laboratory results published in patent US20110044913A1, “8-HYDROXY-5-[(1R)-1-HYDROXY-2-[[(1R)-2-(4-METHOXYPHENYL)-1-METHYLETHYL]AMINO]ETHYL]-2(1H)-QUINOLINONE HEMI-FUMARATE” (Chiesi Farmaceutici S.p.A., priority 2009, published 2011).
Counter-ions that a name gives are not always drawn.

Tests used:
Assay type in all cases: physicochemical
[1] = Dispersion of the micronized salt in the carrier by Near Infrared microscopy imaging (Near Imaging); conditions: micronized form, after 180 minute of mixing
Procedure: As it can be appreciated from Table 6, upon milling, the salt of the present invention remains crystalline and its chemical purity is not altered. The batch is then added to a carrier made of coarser particles.
The homogeneous dispersion of the active ingredient in the powder, and the absence of aggregates of active particles is established using a Near Infrared spectrophotometer equipped with a microscopy imaging system (Near Imaging).

[2] = Hygroscopicity of the salt
[3] = Solubility of the salt in different solvents
[4] = Chemical and physical stability of the salt; conditions: different conditions of humidity and temperature
[5] = Particle size distribution after jet milling (micronization); conditions: micronized batch
From the text: A batch of formoterol fumarate dihydrate is milled in a nitrogen fluid jet mill apparatus MC 50 (JET Pharma S.A).

- Agglomerates after mixing with carrier [1]: no agglomerates are observed
- Hygroscopicity [2]: non-hygroscopic
- Solubility in HFA propellants ([3]; HFA propellants): practically insoluble
- Solubility in Vertrel XF ([3]; solvent: Vertrel XF (2,3-dihydodecafluoropentane, simulates HFA propellants), l.o.d. = limit of detection): <l.o.d.^(2)
- Solubility in Acetone ([3]; solvent: acetone): 0.008 %, w/v
- Solubility in Ethanol ([3]; solvent: ethanol): 0.27 %, w/v
- solubility ([3]; solvent: water): 13.6 mg/mL
- Chemical and physical stability [4]: chemically and physically stable
- Particle size d (v, 0.1) [5]: 0.79 μm
- Particle size d (v, 0.5) [5]: 3.73 μm
- Particle size d (v, 0.9) [5]: 7.58 μm
SMILES: COc1ccc(CC(C)NCC(O)c2ccc(O)c3[nH]c(=O)ccc23)cc1 [Carmoterol hemi-fumarate, 8-hydroxy-5-[(1R)-1-hydroxy-2-[[(1R)-2-(4-methoxyphenyl)-1-methylethyl]amino]ethyl]-2(1H)-quinolinone (carmoterol) hemi-fumarate salt]
